The numbers were not newly measured in patent US20030032674A1, “Use of unsaturated fatty acids to treat severe inflammatory diseases” (priority 2001, published 2003), which cites them from elsewhere.

One series has as its system platelet aggregation. The settings on record: infusion; cited from earlier work.
For series [1] the following is noted: infusion; cited from earlier work.
Series [2] concerns natural killer cell activity. The settings on record: infusion; mice and humans; cited from earlier work.

As for “1,2,3-trieicosapentaenoyl-glycerol [EPA-TG]”, in the series on platelet aggregation, the platelet aggregation result is given as “decrease”. Further, the “urinary concentration of prostaglandin I3 and thromboxane A3” value in series [1] was “increase”. Moreover, the “natural killer cell activity” value in series [2] is given as “inhibit”.
